Measured values reported in BindingDB's records for doi:10.1016/0960-894X(95)00509-R (1995).

Target: Platelet-activating factor receptor (Oryctolagus cuniculus)
Experiment: Tested in vitro for antagonistic activity to displace [3H]PAF from rabbit platelet membrane PAF receptors

Row | Compound | Ki [nM]
1 | CN(C)C(=O)Cn1cc(C(=O)c2ccn3c2CSC3c2cccnc2)c2ccc(-c3ccc(F)cc3)cc21 (stereo not given) [2-[6-(4-Fluoro-phenyl)-3-(3-pyridin-3-yl-1H-pyrrolo[1,2-c]thiazole-7-carbonyl)-indol-1-yl]-N,N-dimethyl-acetamide] | 0.7
2 | CN(C)C(=O)n1cc(C(=O)c2ccn3c2CSC3c2cccnc2)c2ccccc21 (stereo not given) [3-(3-Pyridin-3-yl-1H-pyrrolo[1,2-c]thiazole-7-carbonyl)-indole-1-carboxylic acid dimethylamide] | 95
3 | CC(C)(C)OC(=O)n1cc(C(=O)c2ccn3c2CSC3c2cccnc2)c2ccccc21 (stereo not given) [3-(3-Pyridin-3-yl-1H-pyrrolo[1,2-c]thiazole-7-carbonyl)-indole-1-carboxylic acid tert-butyl ester] | 110
4 | CN(C)C(=O)n1cc(C(=O)c2ccn3c2CSC3c2cccnc2)c2cc(OCc3ccccc3)ccc21 (stereo not given) [5-Benzyloxy-3-(3-pyridin-3-yl-1H-pyrrolo[1,2-c]thiazole-7-carbonyl)-indole-1-carboxylic acid dimethylamide] | 120
5 | CN(C)C(=O)n1cc(C(=O)c2ccn3c2CSC3c2cccnc2)c2ccc(Oc3ccc(F)cc3)cc21 (stereo not given) [6-(4-Fluoro-phenoxy)-3-(3-pyridin-3-yl-1H-pyrrolo[1,2-c]thiazole-7-carbonyl)-indole-1-carboxylic acid dimethylamide] | 1.7
6 | NC(=O)n1cc(C(=O)c2ccn3c2CSC3c2cccnc2)c2ccc(-c3ccc(F)cc3)cc21 (stereo not given) [6-(4-Fluoro-phenyl)-3-(3-pyridin-3-yl-1H-pyrrolo[1,2-c]thiazole-7-carbonyl)-indole-1-carboxylic acid amide] | 6
7 | CCNC(=O)n1cc(C(=O)c2ccn3c2CSC3c2cccnc2)c2ccc(-c3ccc(F)cc3)cc21 (stereo not given) [6-(4-Fluoro-phenyl)-3-(3-pyridin-3-yl-1H-pyrrolo[1,2-c]thiazole-7-carbonyl)-indole-1-carboxylic acid ethylamide] | 19
8 | NNC(=O)n1cc(C(=O)c2ccn3c2CSC3c2cccnc2)c2ccc(-c3ccc(F)cc3)cc21 (stereo not given) [6-(4-Fluoro-phenyl)-3-(3-pyridin-3-yl-1H-pyrrolo[1,2-c]thiazole-7-carbonyl)-indole-1-carboxylic acid hydrazide] | 25
9 | CN(C)C(=O)n1cc(C(=O)c2ccn3c2CSC3c2cccnc2)c2ccc(Sc3ccc(F)cc3)cc21 (stereo not given) [6-(4-Fluoro-phenylsulfanyl)-3-(3-pyridin-3-yl-1H-pyrrolo[1,2-c]thiazole-7-carbonyl)-indole-1-carboxylic acid dimethylamide] | 17
10 | CN(C)C(=O)n1cc(C(=O)c2ccn3c2CSC3c2cccnc2)c2ccc(Cc3ccccc3)cc21 (stereo not given) [6-Benzyl-3-(3-pyridin-3-yl-1H-pyrrolo[1,2-c]thiazole-7-carbonyl)-indole-1-carboxylic acid dimethylamide] | 13
11 | CN(C)C(=O)n1cc(C(=O)c2ccn3c2CSC3c2cccnc2)c2ccc(OCc3ccccc3)cc21 (stereo not given) [6-Benzyloxy-3-(3-pyridin-3-yl-1H-pyrrolo[1,2-c]thiazole-7-carbonyl)-indole-1-carboxylic acid dimethylamide] | 17
12 | CN(C)C(=O)n1cc(C(=O)c2ccn3c2CSC3c2cccnc2)c2ccc(Cl)cc21 (stereo not given) [6-Chloro-3-(3-pyridin-3-yl-1H-pyrrolo[1,2-c]thiazole-7-carbonyl)-indole-1-carboxylic acid dimethylamide] | 89
13 | CN(C)C(=O)n1cc(C(=O)c2ccn3c2CSC3c2cccnc2)c2ccc(-c3ccccc3)cc21 (stereo not given) [6-Phenyl-3-(3-pyridin-3-yl-1H-pyrrolo[1,2-c]thiazole-7-carbonyl)-indole-1-carboxylic acid dimethylamide] | 23
14 | O=C(c1ccn2c1CSC2c1cccnc1)c1c[nH]c2cccc(O)c12 (stereo not given) [(4-Hydroxy-1H-indol-3-yl)-(3-pyridin-3-yl-1H-pyrrolo[1,2-c]thiazol-7-yl)-methanone] | 327
15 | O=C(c1ccn2c1CSC2c1cccnc1)c1c[nH]c2ccc(OCc3ccccc3)cc12 (stereo not given) [(5-Benzyloxy-1H-indol-3-yl)-(3-pyridin-3-yl-1H-pyrrolo[1,2-c]thiazol-7-yl)-methanone] | 180
16 | O=C(c1ccn2c1CSC2c1cccnc1)c1c[nH]c2cc(OCc3ccccc3)ccc12 (stereo not given) [(6-Benzyloxy-1H-indol-3-yl)-(3-pyridin-3-yl-1H-pyrrolo[1,2-c]thiazol-7-yl)-methanone] | 64
17 | O=C(c1ccn2c1CSC2c1cccnc1)c1c[nH]c2c(OCc3ccccc3)cccc12 (stereo not given) [(7-Benzyloxy-1H-indol-3-yl)-(3-pyridin-3-yl-1H-pyrrolo[1,2-c]thiazol-7-yl)-methanone] | 90
18 | O=C(c1ccn2c1CSC2c1cccnc1)c1cn(C(=O)N2CCOCC2)c2ccccc12 (stereo not given) [Morpholin-4-yl-[3-(3-pyridin-3-yl-1H-pyrrolo[1,2-c]thiazole-7-carbonyl)-indol-1-yl]-methanone] | 225
19 | Cn1cc(C(=O)c2ccn3c2CSC3c2cccnc2)c2ccc(-c3ccc(F)cc3)cc21 (stereo not given) [[6-(4-Fluoro-phenyl)-1-methyl-1H-indol-3-yl]-(3-pyridin-3-yl-1H-pyrrolo[1,2-c]thiazol-7-yl)-methanone] | 7
20 | O=C(c1ccn2c1CSC2c1cccnc1)c1c[nH]c2cc(-c3ccc(F)cc3)ccc12 (stereo not given) [[6-(4-Fluoro-phenyl)-1H-indol-3-yl]-(3-pyridin-3-yl-1H-pyrrolo[1,2-c]thiazol-7-yl)-methanone] | 75
